ChEMBL document CHEMBL1154483, “Mechanistic aspects of benzothiazepines: a class of antiarrhythmic drugs” (Eur J Med Chem, 2009)

Assay: Inhibition of calcium channel

Row | IC50 [nM] | SMILES
1 | 337 | COc1ccc([C@@H]2Sc3ccccc3N(CCN(C)C)C(=O)[C@@H]2OC(C)=O)cc1 [DILTIAZEM]
2 | 6.5 | COc1ccc([C@@H]2Sc3ccccc3N(CCN(C)CCc3ccc(OC)c(OC)c3)C(=O)[C@@H]2OC(C)=O)cc1
